Measured values taken from patent EP0288176A1, “Tyrosine derivatives and use thereof” (AJINOMOTO CO., INC., priority 1987, dated 1988).

Experiments:
[1] = Activity test: peroral administration with insulin, blood glucose decrease and blood insulin increase; type: in vivo, female mice of ICR-CD-1 strain; set-up: key to percent decrease in blood sugar (%): The symbol + means that there was no decrease in blood sugar; key to degree of increase of blood insulin: the symbol - means that there was no increase in blood insulin; conditions: 0.5 U insulin/10 g bodyweight and 3 mg compound/10 g bodyweight, compared with control group
Description: The absorption promoting agents according to the present invention shown in Table 1 were suspended in 0.5% CMC - 0.05 M trisHCl buffer (pH 7.8), and mixed with insulin. The resultant mixture was administered perorally to female mice of ICR-CD-1 strain (aged 5 to 7 weeks) at 0.5 U insulin/10 g bodyweight and 3 mg of the above compound/10 g bodyweight. The percent decrease of blood glucose(%) and the degree of increase of blood insulin after predetermined periods of time were compared with those of the control group, and the results are shown in Table 2.
In the Table, the figures given in the upper rows denote 1) percent of decrease in blood glucose(%) and those in the lower rows in parentheses denote 2) degree of increase in blood insulin level. The symbol + means that there was no decrease in blood sugar and the symbol - means that there was no increase in blood insulin.

[2] = Toxicity: LD50 in mice, perorally administered; conditions: mouse, in vivo, po, read-out: LD₅₀
From the text: Toxicity of O-alkyl tyrosine derivatives is low; each of LD₅₀ in mice perorally administered of O-methyl-N-(4-methylcinnamoyl)-L-tyrosine (S-1), O-methyl-N-(α-fluoro-4-methylcinnamoyl)-L-tyrosine (S-5), O-methyl-N-(β-chloro-4-methylcinnamoyl)-L-tyrosine (S-9) is 3.0 g/kg or higher.

SMILES	percent decrease in blood sugar (%) ([1]; 60 min.)	LD50 [2] [mg/kg]	percent decrease in blood sugar (%) ([1]; 30 min.)	other results
COc1ccc(C[C@@H](NC(=O)C=C(Cl)c2ccc(C)cc2)C(=O)O)cc1 [Compound S-10, O-methyl-N-(β-chloro-4-methylcinnamoyl)-D-tyrosine]	+			
COc1ccc(C[C@H](NC(=O)C=Cc2ccc(C)cc2)C(=O)O)cc1 [Compound S-1, O-methyl-N-(4-methylcinnamoyl)-L-tyrosine]		≥ 3000		
CCOc1ccc(C[C@H](NC(=O)C=Cc2ccc(C)cc2)C(=O)O)cc1 [Compound S-2, O-ethyl-N-(4-methylcinnamoyl)-L-tyrosine]			+	degree of increase of blood insulin ([1]; 30 min.): -
COc1ccc(C[C@H](NC(=O)C(F)=Cc2ccc(C)cc2)C(=O)O)cc1 [Compound S-5, O-methyl-N-(α-fluoro-4-methycinnamoyl)-L-tyrosine]	+	≥ 3000		
COc1ccc(C[C@H](NC(=O)C(Cl)=Cc2ccc(C)cc2)C(=O)O)cc1 [Compound S-7, O-methyl-N-(α-chloro-4-methylcinnamoyl)-L-tyrosine]	+		+	percent decrease in blood sugar (%) ([1]; 15 min.): 28.6%
COc1ccc(C[C@@H](NC(=O)C(Cl)=Cc2ccc(C)cc2)C(=O)O)cc1 [Compound S-8, O-methyl-N-(α-chloro-4-methylcinnamoyl)-D-tyrosine]	+			
COc1ccc(C[C@H](NC(=O)C=C(Cl)c2ccc(C)cc2)C(=O)O)cc1 [Compound S-9, O-methyl-N-(β-chloro-4-methylcinnamoyl)-L-tyrosine]		≥ 3000		degree of increase of blood insulin ([1]; 60 min.): -
COc1ccc(C[C@H](NC(=O)C(F)=Cc2ccccc2)C(=O)O)cc1 [Compound S-4, O-methyl-N-(α-fluorocinnamoyl)-L-tyrosine]	+			
CCOc1ccc(C[C@H](NC(=O)C(F)=Cc2ccc(C)cc2)C(=O)O)cc1 [Compound S-6, O-ethyl-N-(α-fluroro-4-methylcinnamoyl)-L-tyrosine]	+		+	degree of increase of blood insulin ([1]; 15 min.): 5.3; percent decrease in blood sugar (%) ([1]; 15 min.): 29.1%; degree of increase of blood insulin ([1]; 30 min.): -; degree of increase of blood insulin ([1]; 60 min.): -
